In patent US20230016007A1, “SOLUTIONS AND METHODS FOR FORMING AN EXOGENOUS FLEXIBLE FILM, WHICH INCLUDES A SUPPLEMENTAL COMPONENT, ON A PLANT AND PLANTS INCLUDING THE EXOGENOUS FLEXIBLE FILM” (Cultiva, LLC, priority 2017, published 2023):

System: grey mold (Botrytis cinerea)
Assay: grey mold on Frontelis strawberries 7 days post-harvest (FIG. 11)
Protocol: The four groups were evaluated for infestation with grey mold 7 days post-harvest.

CC1(C(=O)Nc2ccc(O)c(Cl)c2Cl)CCCCC1 [Fenhexamid]
infestation with grey mold: exhibited at least some infestation
